In the supplement of paper PMC4862054:

Assays:
Settings in all cases: incubation time: 72 h
BT-474 [1] = test: normalised response (% of control), CellTiter-Glo; higher = more viable cells (100 = DMSO, 0 = benzethonium chloride kill control)
In short: (§1)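 Every value is a normalised signal taken at one concentration of a dilution series. Compound was placed in 384-well plates at 5 concentrations in 10-fold steps over a compound-specific 10,000-fold range, and 20 µl of breast cancer cell suspension was seeded onto it. After 72 h, CellTox Green fluorescence (485/520 nm) was measured first and CellTiter-Glo luminescence second, following 10 min at room temperature. Each plate was scaled to 0.1 % DMSO (100) and a positive kill control (0).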

Hs578T [2] = test: as above
In short: as §1

DU-4475 [3] = test: as above
In short: as §1

MCF-10A [4] = test: as above
In short: as §1

MDA-MB-231 [5] = test: as above
In short: as §1

SK-BR-3 = test: as above
In short: as §1

MDA-MB-453 [6] = test: as above
In short: as §1

HCC1599 [7] = test: as above
In short: as §1

MDA-MB-468 [8] = test: as above
In short: as §1

MFM-223 [9] = test: as above
In short: as §1

CAL-120 [10] = test: as above
In short: as §1

BT-549 [11] = test: as above
In short: as §1

MDA-MB-436 [12] = test: as above
In short: as §1

CAL-148 [13] = test: as above
In short: as §1

HCC1143 [14] = test: as above
In short: as §1

HDQ-P1 [15] = test: as above
In short: as §1

HCC1937 [16] = test: as above
In short: as §1

CAL-51 [17] = test: as above
In short: as §1

CAL-85-1 [18] = test: as above
In short: as §1

BT-474 [19] = test: normalised response (% of control), CellTox Green; higher = less cell death (100 = DMSO, 0 = benzethonium chloride kill control)
In short: as §1

Hs578T [20] = test: as above
In short: as §1

DU-4475 [21] = test: as above
In short: as §1

MCF-10A [22] = test: as above
In short: as §1

MDA-MB-231 [23] = test: as above
In short: as §1

MDA-MB-453 [24] = test: as above
In short: as §1

HCC1599 [25] = test: as above
In short: as §1

MDA-MB-468 [26] = test: as above
In short: as §1

CAL-120 [27] = test: as above
In short: as §1

BT-549 [28] = test: as above
In short: as §1

MDA-MB-436 [29] = test: as above
In short: as §1

CAL-148 [30] = test: as above
In short: as §1

HCC1143 [31] = test: as above
In short: as §1

HDQ-P1 [32] = test: as above
In short: as §1

HCC1937 [33] = test: as above
In short: as §1

CAL-51 [34] = test: as above
In short: as §1

CAL-85-1 [35] = test: as above
In short: as §1

MFM-223 [36] = test: as above
In short: as §1

Row | SMILES | normalised response (BT-474 [1]) [%] | normalised response (Hs578T [2]) [%] | normalised response (DU-4475 [3]) [%] | normalised response (MCF-10A [4]) [%] | normalised response (MDA-MB-231 [5]) [%] | normalised response (SK-BR-3) [%] | normalised response (MDA-MB-453 [6]) [%] | normalised response (HCC1599 [7]) [%] | normalised response (MDA-MB-468 [8]) [%] | normalised response (MFM-223 [9]) [%] | normalised response (CAL-120 [10]) [%] | normalised response (BT-549 [11]) [%] | normalised response (MDA-MB-436 [12]) [%] | normalised response (CAL-148 [13]) [%] | normalised response (HCC1143 [14]) [%] | normalised response (HDQ-P1 [15]) [%] | normalised response (HCC1937 [16]) [%] | normalised response (CAL-51 [17]) [%] | normalised response (CAL-85-1 [18]) [%] | normalised response (BT-474 [19]) [%] | normalised response (Hs578T [20]) [%] | normalised response (DU-4475 [21]) [%] | normalised response (MCF-10A [22]) [%] | normalised response (MDA-MB-231 [23]) [%] | normalised response (MDA-MB-453 [24]) [%] | normalised response (HCC1599 [25]) [%] | normalised response (MDA-MB-468 [26]) [%] | normalised response (CAL-120 [27]) [%] | normalised response (BT-549 [28]) [%] | normalised response (MDA-MB-436 [29]) [%] | normalised response (CAL-148 [30]) [%] | normalised response (HCC1143 [31]) [%] | normalised response (HDQ-P1 [32]) [%] | normalised response (HCC1937 [33]) [%] | normalised response (CAL-51 [34]) [%] | normalised response (CAL-85-1 [35]) [%] | normalised response (MFM-223 [36]) [%]
1 | O=C(O)CNC(=O)c1c(O)c2ccccc2n(Cc2ccccc2)c1=O [IOX-2] (5000 nM) | 95.7 | 100 | 99.3 | 104 | 91.3 | 99.7 | 93.1 | 114 | 106 | 97.7 | 101 | 96.2 | 96.7 | 100 | 103 | 100 | 93.3 | 85.1 | 96.9 | 100 | 58.2 | 103 | 84.6 | 66.4 | 110 | 98.2 | 57.3 | 98.4 | 72.8 | 93.2 | 98.5 | 97.1 | 105 | 114 | 94.9 | 104 | –
2 | CC(C)n1cnc2c(NCCc3ccc(O)cc3)nc(-c3csc4ccccc34)nc21 [StemRegenin 1] (1000 nM) | 108 | 105 | 103 | 94 | 110 | 96.5 | 102 | 111 | 100 | 93.8 | 99.9 | 77.9 | 100 | 99.3 | 110 | 89.6 | 95.4 | 121 | 98.8 | 100 | 88.4 | 107 | 83.1 | 114 | 110 | 96 | 137 | 104 | -112 | 110 | 85.1 | 119 | 102 | 89.9 | 118 | 118 | 81.1
3 | CN(Cc1cnc2nc(N)nc(N)c2n1)c1ccc(C(=O)N[C@@H](CCC(=O)O)C(=O)O)cc1 [Methotrexate] (5000 nM) | 78.1 | 110 | 102 | 107 | 77.5 | 115 | 110 | 97.9 | 99.4 | 104 | 21.1 | 97.8 | 81.5 | 100 | 83.5 | 51.3 | 31.3 | 56.8 | 51.4 | 102 | 102 | 102 | 107 | 116 | 107 | 98.8 | 129 | 98.9 | 125 | 97.6 | 100 | 109 | 107 | 110 | 115 | 102 | 97.5
4 | CCN(CC)CCCC(C)Nc1ccnc2cc(Cl)ccc12 (configuration not stated) [Chloroquine] (10000 nM) | 72.1 | 97.4 | 80.1 | 74.2 | 73.9 | 35.2 | 28.8 | 65.3 | 57.4 | 62.9 | 50.6 | 73.3 | 77.3 | 60.2 | 89.6 | 86.2 | 65.7 | 51.7 | 57.7 | 35.4 | 94.3 | 96.2 | 95.2 | 50.4 | 62.1 | 86.2 | 119 | -30.1 | 93.2 | 59.4 | 35.5 | 110 | 81.6 | 91.5 | 91.5 | 93 | 67.7
5 | CCn1c(C(=O)N(C2CC2)C2CC2)cc2c3c(ncn3C)c(Nc3cc(C)n(C)n3)nc21 (1000 nM) | 92.7 | 95.8 | 97.2 | 99.9 | 92.5 | 101 | 92.7 | 124 | 85.4 | 95.2 | 96.4 | 98.2 | 105 | 96.6 | 103 | 98.8 | 101 | 70.1 | 99.5 | 98.8 | 93 | 103 | 117 | 102 | 104 | 89.3 | 95.6 | 96.2 | 94.2 | 98.2 | 87.1 | 106 | 96.2 | 120 | 98.2 | 102 | 98.5
6 | O=[N+]([O-])c1ccc2c(c1)S(=O)(=O)C=C2 [Stattic] (5000 nM) | 68.9 | 29.6 | 101 | 105 | 30.9 | 80.9 | 45 | 86.9 | 2.23 | 22.8 | 88.3 | 0.47 | 75.7 | 46.4 | 93.1 | 92.2 | 22.3 | 0.16 | 1.59 | 12.7 | -141 | 104 | – | 51.2 | 108 | 95.2 | -175 | 105 | -67.2 | 106 | 51.2 | 118 | 106 | 28.6 | -12.3 | -36.1 | 4.35
7 | CN(C)C(=N)NC(=N)N [Metformin] (10000 nM) | 91 | 98.9 | 79.5 | 87.7 | 93.5 | 77.8 | 80.3 | 108 | 92.7 | 92.4 | 106 | 98.4 | 101 | 98.3 | 93.6 | 97.2 | 99.5 | 75.2 | 102 | 95 | 83.7 | 89.4 | 103 | 90.4 | 80.9 | 82.2 | 79.5 | 88.3 | 76.2 | 55.5 | 97.9 | 72.2 | 101 | 66.8 | 66.7 | 98 | 99.2
